Source: patent US6087493A, “Porphyrin compounds as telomerase inhibitors” (Regents of the University of Texas System, priority 1998, dated 2000)

target: human telomerase (Homo sapiens, UniProt O14746); experiment: Telomerase inhibition, primer extension assay in HeLa cell extract; format: biochemical; conditions: not given
Sequence (O14746 whole entry): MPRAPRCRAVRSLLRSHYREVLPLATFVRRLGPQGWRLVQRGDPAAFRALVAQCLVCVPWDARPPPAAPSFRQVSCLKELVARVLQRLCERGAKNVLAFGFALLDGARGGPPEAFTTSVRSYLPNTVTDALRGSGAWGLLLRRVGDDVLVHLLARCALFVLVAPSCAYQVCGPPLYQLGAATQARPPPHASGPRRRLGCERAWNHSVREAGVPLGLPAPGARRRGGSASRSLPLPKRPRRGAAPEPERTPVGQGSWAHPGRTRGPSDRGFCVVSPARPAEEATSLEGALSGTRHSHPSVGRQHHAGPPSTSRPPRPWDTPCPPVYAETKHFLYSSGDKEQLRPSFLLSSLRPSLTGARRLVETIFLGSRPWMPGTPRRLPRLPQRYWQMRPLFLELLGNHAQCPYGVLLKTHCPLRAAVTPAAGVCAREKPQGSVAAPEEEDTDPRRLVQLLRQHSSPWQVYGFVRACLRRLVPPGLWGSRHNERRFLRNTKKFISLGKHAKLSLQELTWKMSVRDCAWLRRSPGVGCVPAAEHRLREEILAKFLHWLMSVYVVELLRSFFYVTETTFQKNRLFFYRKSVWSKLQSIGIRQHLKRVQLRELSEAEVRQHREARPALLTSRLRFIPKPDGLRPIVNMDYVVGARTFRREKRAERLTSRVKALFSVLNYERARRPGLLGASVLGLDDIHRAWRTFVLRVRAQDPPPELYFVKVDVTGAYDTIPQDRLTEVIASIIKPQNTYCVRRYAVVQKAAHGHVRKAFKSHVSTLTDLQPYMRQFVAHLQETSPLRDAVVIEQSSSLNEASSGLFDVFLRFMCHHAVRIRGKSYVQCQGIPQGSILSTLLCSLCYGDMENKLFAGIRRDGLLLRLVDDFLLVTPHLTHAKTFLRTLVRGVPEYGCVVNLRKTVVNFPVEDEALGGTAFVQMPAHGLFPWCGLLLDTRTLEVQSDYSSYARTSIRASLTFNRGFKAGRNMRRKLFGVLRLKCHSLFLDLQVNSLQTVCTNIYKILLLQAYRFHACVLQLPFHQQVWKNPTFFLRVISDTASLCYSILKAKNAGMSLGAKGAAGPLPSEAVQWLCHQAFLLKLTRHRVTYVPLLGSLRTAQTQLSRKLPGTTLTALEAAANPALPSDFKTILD

Compound | telomerase inhibition in words
Copper(II)tetra-N-methyl-tetrazaphthalocyanine [Compound D7] | only slight activity
C[n+]1ccc(-c2c3nc(c(-c4cc[n+](C)cc4)c4ccc([n-]4)c(-c4cc[n+](C)cc4)c4nc(c(-c5cc[n+](C)cc5)c5ccc2[n-]5)C=C4)C=C3)cc1.[Cl-].[Cl-].[Cl-].[Cl-].[Zn+2] [TMPyP4 ZnII] | better inhibitors
5,10-di-(N-methyl-4-pyridyl)-15,20-di-(3-nitrophenyl)porphine chloride [Compound D20] | good activity

same assay, conditions: 25 µM

Compound | % Inhibition of telomerase [%]
C[n+]1ccc(-c2c3nc(c(-c4cc[n+](C)cc4)c4ccc([n-]4)c(-c4cc[n+](C)cc4)c4nc(c(-c5cc[n+](C)cc5)c5ccc2[n-]5)C=C4)C=C3)cc1.[Cl-].[Cl-].[Cl-].[Cl-].[Zn+2] [TMPyP4 ZnII] | 88

same assay, conditions: 25 μM; Table 7; read-out: % Inhibition of telomerase

inhibition at 25 µM [%] | Compound
20 | C[n+]1cccc(-c2c3nc(c(-c4ccc[n+](C)c4)c4ccc([nH]4)c(-c4ccccc4)c4nc(c(-c5ccccc5)c5ccc2[nH]5)C=C4)C=C3)c1 [Compound B22]
20 | C[n+]1ccc(-c2c3nc(c(-c4ccccc4)c4ccc([nH]4)c(-c4ccccc4)c4nc(c(-c5cc[n+](C)cc5)c5ccc2[nH]5)C=C4)C=C3)cc1 [Compound B5, 5,10-Diphenyl-15,20-di(N-methyl-4-pyridyl)porphyrin chloride]
31 | Cc1ccc(-c2c3nc(c(-c4ccc(C)cc4)c4ccc([nH]4)c(-c4cc[n+](C)cc4)c4nc(c(-c5ccc(C)cc5)c5ccc2[nH]5)C=C4)C=C3)cc1 [Compound D9, 5-(N-methyl-4-pyridyl)-10,15,20-(4-methylphenyl)porphine chloride]
35 | C[n+]1cccc(-c2c3nc(c(-c4ccccc4)c4ccc([nH]4)c(-c4ccccc4)c4nc(c(-c5ccccc5)c5ccc2[nH]5)C=C4)C=C3)c1 [Compound B25]
34 | C[n+]1ccc(-c2c3nc(c(-c4ccccc4)c4ccc([nH]4)c(-c4ccccc4)c4nc(c(-c5ccccc5)c5ccc2[nH]5)C=C4)C=C3)cc1 [Compound B24]
30 | C[n+]1ccc(-c2c3nc(c(-c4ccccc4)c4ccc([nH]4)c(-c4cc[n+](C)cc4)c4nc(c(-c5ccccc5)c5ccc2[nH]5)C=C4)C=C3)cc1 [Compound B4, 5,15-Diphenyl-10,20-di(N-methyl-4-pyridyl)porphyrin chloride]

Compound | inhibition at 25 µM [%]
C[n+]1cccc(-c2c3nc(c(-c4ccc[n+](C)c4)c4ccc([nH]4)c(-c4ccc[n+](C)c4)c4nc(c(-c5ccccc5)c5ccc2[nH]5)C=C4)C=C3)c1 [Compound B10, Tri(N-methyl-3-pyridyl)phenylporphyrin chloride] | 42

same assay, conditions: 25 μM; Table 9; read-out: % Inhibition of telomerase

Compound | inhibition at 25 µM [%]
O=[N+]([O-])c1cc(-c2c3nc(cc4ccc([nH]4)c(-c4ccc(O)c([N+](=O)[O-])c4)c4nc(cc5ccc2[nH]5)C=C4)C=C3)ccc1O [Compound D14] | 55

same assay, conditions: 25 μM; Table 10

Compound | % Inhibition of telomerase [%]
5,10-di-(N-methyl-4-pyridyl)-15,20-di-(3-nitrophenyl)porphine chloride [Compound D20] | 70

same assay, conditions: 25 μM; Table 13; read-out: % Inhibition of telomerase

inhibition at 25 µM [%] | Compound
3 | Nc1ccccc1-c1c2nc(c(-c3ccccc3N)c3ccc([nH]3)c(-c3ccccc3N)c3nc(c(-c4ccccc4N)c4ccc1[nH]4)C=C3)C=C2 [Compound B3, Tetra-(2-aminophenyl)porphyrin]
15 | Nc1cccc(-c2c3nc(c(-c4cccc(N)c4)c4ccc([nH]4)c(-c4cccc(N)c4)c4nc(c(-c5cccc(N)c5)c5ccc2[nH]5)C=C4)C=C3)c1 [Compound B2, Tetra-(3-aminophenyl)porphyrin]
47 | C[n+]1ccc(-c2c3nc(c(-c4ccccc4)c4ccc([nH]4)c(-c4cc[n+](C)cc4)c4nc(c(-c5ccccc5)c5ccc2[nH]5)C=C4)C=C3)cc1 [Compound B4, 5,15-Diphenyl-10,20-di(N-methyl-4-pyridyl)porphyrin chloride]

same assay, conditions: Table 15; concentration fixed at 25 μM; 25 µM

% Inhibition of telomerase [%] | Compound
16 | C=CC1=C(C)c2cc3[nH]c(cc4nc(cc5[nH]c(cc1n2)c(C)c5C=C)C(C)=C4CCC(=O)O)c(CCC(=O)O)c3C [Compound H19]

same assay, conditions: Table 15; concentration fixed at 25 μM; read-out: % Inhibition of telomerase

inhibition at 25 µM [%] | Compound
18 | CCOC(=O)CCc1c(C)c2cc3nc(cc4[nH]c(cc5nc(cc1[nH]2)C(C)=C5CC)c(C)c4CC)C(C)=C3C(=O)OCC [Compound H25]
0 | CC(=O)C1=C(C)c2cc3[nH]c(cc4nc(cc5[nH]c(cc1n2)c(C)c5C(C)=O)C(C)=C4CCC(=O)O)c(C)c3CCC(=O)O [Compound H29]
14 | COC(=O)CCC1=C(C)c2cc3cc(C)c(cc4nc(cc5[nH]c(cc1n2)c(CCC(=O)OC)c5C)C(C)=C4)[nH]3 [Compound H7]
-10 | CC1=C(C=O)c2cc3[nH]c(cc4nc(cc5[nH]c(cc1n2)c(CCC(=O)O)c5C)C(CCC(=O)O)=C4C)c(C=O)c3C [Compound H31]
0 | CCOC(=O)CCC1=C(C)c2cc3[nH]c(cc4nc(cc5[nH]c(cc1n2)c(CC)c5C)C(CC)=C4C)c(C)c3C [Compound H28]
18 | CC1=C(CCC(=O)O)c2cc3[nH]c(cc4nc(cc5[nH]c(cc1n2)c(C(C)O)c5C)C(C(C)O)=C4C)c(C)c3CCC(=O)O (stereo not shown) [Compound H12]
14 | COC(=O)CCC1=C(C)c2cc3[nH]c(cc4nc(cc5[nH]c(cc1n2)c(CCC(=O)OC)c5C)C(C)=C4C(C)=O)c(C)c3C(C)=O [Compound H9]
5 | CC1=C(CCC(=O)O)c2cc3[nH]c(cc4nc(cc5[nH]c(cc1n2)c(C)c5CCC(=O)O)C(CCC(=O)O)=C4C)c(C)c3CCC(=O)O [Compound H23]
33 | COC(=O)CCC1=C(C)c2cc3[nH]c(cc4nc(cc5[nH]c(cc1n2)c(CCC(=O)OC)c5C)C(C)=C4CCC(=O)OC)c(CCC(=O)OC)c3C [Compound H21]
6 | C=CC1=C(C)c2cc3[nH]c(cc4nc(cc5[nH]c(cc1n2)c(C)c5C=C)C(C)=C4CCC(=O)OC)c(CCC(=O)OC)c3C [Compound H17]
20 | COC(=O)CCC1=C(C)c2cc3[nH]c(cc4nc(cc5[nH]c(cc1n2)c(CCC(=O)OC)c5C)C(C)=C4C(C)O)c(C)c3C(C)O (stereo not shown) [Compound H11]
24 | COC(=O)CCC1=C(C)c2cc3[nH]c(cc4nc(cc5[nH]c(cc1n2)c(CCC(=O)OC)c5C)C(C)=C4S(=O)(=O)O)c(C)c3S(=O)(=O)O [Compound H8]
23 | CCC1=C(C)c2cc3[nH]c(cc4nc(cc5[nH]c(cc1n2)c(C)c5CC)C(C)=C4CCCO)c(CCCO)c3C [Compound H26]
0 | CCC1=C(C)c2cc3[nH]c(cc4nc(cc5[nH]c(cc1n2)c(C)c5CC)C(C)=C4CC)c(CC)c3C [Compound H2]
6 | CCC1=C(C)c2cc3[nH]c(cc4nc(cc5[nH]c(cc1n2)c(C)c5CC)C(C)=C4CCC(=O)O)c(CCC(=O)O)c3C [Compound H15]

system: not given; experiment: not given; conditions: 25 μM; Table 9

Compound | % insoluble remark (solubility)
O=[N+]([O-])c1cc(-c2c3nc(c(-c4ccc(Cl)c([N+](=O)[O-])c4)c4ccc([nH]4)c(-c4ccc(Cl)c([N+](=O)[O-])c4)c4nc(c(-c5ccc(Cl)c([N+](=O)[O-])c5)c5ccc2[nH]5)C=C4)C=C3)ccc1Cl [Compound D13, 5,10,15,20-tetra-(4-chloro-3-nitrophenyl)porphine] | insoluble
O=[N+]([O-])c1cccc(-c2c3nc(cc4ccc([nH]4)c(-c4cccc([N+](=O)[O-])c4)c4nc(cc5ccc2[nH]5)C=C4)C=C3)c1 [Compound D16] | insoluble
